Laboratory results from patent US10392383B2, “3-(1H-benzo[d]imidazol-2-yl)-1H-pyrazolo[4,3-b]pyridines and therapeutic uses thereof” (Samumed, LLC, priority 2015, dated 2019).

Legend:
[1] = system: Wnt activity (Sp5-Luc reporter, Wnt-responsive promoter) in SW480 colon carcinoma cells; test: Wnt activity screening assay: Sp5-Luc reporter gene assay in SW480 cells; format: cell-based; conditions: Homo sapiens; for EC50: overnight incubation, 10-point curve starting from 10 μM; for inhibition at 10 µM: read-out: percent inhibition at 10 μM (given for EC50 of >10 μM)
Excerpt: The screening assay for Wnt activity is described as follows. Reporter cell lines can be generated by stably transducing cancer cell lines (e.g., colon cancer) or primary cells (e.g., IEC-6 intestinal cells) with a lentiviral construct that includes a Wnt-responsive promoter driving expression of the firefly luciferase gene.
SW480 colon carcinoma cells were transduced with a lentiviral vector expressing luciferase with a human Sp5 promoter consisting of a sequence of eight TCF/LEF binding sites. SW480 cells stably expressing the Sp5-Luc reporter gene and a hygromycin resistance gene were selected by treatment with 150 μg/mL of hygromycin for 7 days. These stably transduced SW480 cells were expanded in cell culture and used for all further screening activities. Each compound was dissolved in DMSO as a 10 mM stock and used to prepare compound source plates. Serial dilution (1:3, 10-point dose-response curves starting from 10 μM) and compound transfer was performed using the ECHO 550 (Labcyte, Sunnyvale, Calif.) into 384-well white solid bottom assay plates (Greiner Bio-One) with appropriate DMSO backfill for a final DMSO concentration of 0.1%. For Sp5-Luc reporter gene assays, the cells were plated at 4,000 cells/well in 384-well plates with medium containing 1% fetal bovine serum and incubated overnight at 37° C. and 5% CO2. Following incubation, 20 μl of BrightGlo luminescence reagent (Promega) was added to each well of the 384-well assay plates. The plates were placed on an orbital shaker for 2 min and then luminescence was quantified using the Envision (Perkin Elmer) plate reader. Readings were normalized to DMSO only treated cells, and normalized activities were utilized for EC50 calculations using the dose-response log (inhibitor) vs. response-variable slope (four parameters) nonlinear regression feature available in GraphPad Prism 5.0 (or Dotmatics). For EC50 of >10 μM, the percent inhibition at 10 μM is provided.

IL-6 (THP-1 cells) = test: IL-6 inhibition in LPS-stimulated THP-1 monocytes (HTRF); format: cell-based; conditions: Homo sapiens, IL-6 HTRF; for EC50: 500 ng/mL LPS, Table 6; for inhibition at 10 µM: LPS, Table 6, read-out: percent inhibition at 10 μM (given in parentheses for EC50 >10 μM)
Procedure: Human Monocyte Cell Culture: Human monocyte cell line (THP-1 cells; Catalog # TIB-202, ATCC, Manassas, Va.) were cultured in Roswell Park Memorial Institute (RPMI) 1640 Medium (Catalog #21870-100, Buffalo, N.Y.) with 1% L-glutamine, 1% HEPES, 1% Sodium Pyruvate, 2% Sodium Bicarbonate supplemented with 100 units/mL penicillin, 50 μg/mL streptomycin, 2-mercaptoethanol (0.05 mM) [basal medium] and 10% fetal bovine serum (Catalog #16140089, Life Technologies, Carlsbad, Calif.) at 37° C. and 5% CO2.
Compound Screening: THP-1 cells were cultured in basal media with 1% FBS for 24 hours before the start of the assay. Each compound was dissolved in DMSO as a 10 mM stock and used to prepare compound source plates. Serial dilution (1:3, 10-point dose-response curves starting from 10 μM) and compound transfer was performed using the ECHO 550 (Labcyte, Sunnyvale, Calif.) into 384-well white low volume assay plates (Greiner Bio-One) with appropriate DMSO backfill for a final DMSO concentration of 0.1%. THP-1 cells were plated at 5000 cells/well in the 384-well plates and incubated at 37° C. for 2 h. 500 ng/mL of LPS was added after 2 hours and cells were incubated for another 22 hours at 37° C. Plates were spun in a centrifuge for 1 minute at […] and a mixture of anti-IL6 XL665, and anti-IL6 Cryptate diluted in reconstitution buffer (Cisbio Inc.) was added to each well. Following incubation for 3 hrs at room temperature, Homogeneous Time-Resolved Fluorescence (HTRF) was measured using the Envision (Perkin Elmer) at 665 nm and […]. The ratio of fluorescence at 665 nm to 620 nm was used as a readout for IL6 quantification. All samples were processed in duplicate. Readings were normalized to DMSO treated cells and normalized activities were utilized for EC50 calculations using the dose-response log (inhibitor) vs. response-variable slope (four parameters) nonlinear regression feature available in GraphPad Prism 5.0 (or Dotmatics). For EC50 of >10 μM, the percent inhibition at 10 μM is provided.

EC50 [1] [µM]	EC50 (IL-6 (THP-1 cells)) [µM]	SMILES	inhibition at 10 µM (IL-6 (THP-1 cells)) [%]	inhibition at 10 µM [1] [%]
3.78	> 10	CC(C)C(=O)Nc1cncc(-c2ccc3[nH]nc(-c4nc5c(-c6cccnc6)cccc5[nH]4)c3n2)c1 [Compound 93, N-(5-(3-(4-(Pyridin-3-yl)-1H-benzo[d]imidazol-2-yl)-1H-pyrazolo[4,3-b]pyridin-5-yl)pyridin-3-yl)isobutyramide]	42.5	
0.892	0.0518	O=C(Nc1cncc(-c2ccc3[nH]nc(-c4nc5c(-c6ccccc6F)cccc5[nH]4)c3n2)c1)C(F)(F)F [Compound 1126, 2,2,2-Trifluoro-N-(5-(3-(4-(2-fluorophenyl)-1H-benzo[d]imidazol-2-yl)-1H-pyrazolo[4,3-b]pyridin-5-yl)pyridin-3-yl)acetamide]		
> 10	> 10	CS(=O)(=O)NCc1cc(F)cc(-c2cccc3[nH]c(-c4n[nH]c5ccc(-c6cncc(NC(=O)CC7CCNCC7)c6)nc45)nc23)c1 [Compound 769, N-(5-(3-(4-(3-Fluoro-5-(methylsulfonamidomethyl)phenyl)-1H-benzo[d]imidazol-2-yl)-1H-pyrazolo[4,3-b]pyridin-5-yl)pyridin-3-yl)-2-(piperidin-4-yl)acetamide]	25.4	12.3
> 10	0.38	Cc1cn(-c2cccc3[nH]c(-c4n[nH]c5ccc(-c6cncc(N7CC(N)C7)n6)nc45)nc23)cn1 [Compound 622, 1-(6-(3-(4-(4-Methyl-1H-imidazol-1-yl)-1H-benzo[d]imidazol-2-yl)-1H-pyrazolo[4,3-b]pyridin-5-yl)pyrazin-2-yl)azetidin-3-amine]		12.6
0.929	> 10	Cn1cc(-c2ccc3[nH]nc(-c4nc5c(-c6ccc7c(c6)OCO7)cccc5[nH]4)c3n2)c(CO)n1 [Compound 1152, (4-(3-(4-(Benzo[d][1,3]dioxol-5-yl)-1H-benzo[d]imidazol-2-yl)-1H-pyrazolo[4,3-b]pyridin-5-yl)-1-methyl-1H-pyrazol-3-yl)methanol]	23.3	
2.41	> 10	COc1cccc(-c2cccc3[nH]c(-c4n[nH]c5ccc(-c6cncc(NC(=O)CC(C)(C)C)c6)nc45)nc23)c1 [Compound 1006, N-(5-(3-(4-(3-methoxyphenyl)-1H-benzo[d]imidazol-2-yl)-1H-pyrazolo[4,3-b]pyridin-5-yl)pyridin-3-yl)-3,3-dimethylbutanamide]	23.8	
> 10	> 10	Fc1ccc(-c2cccc3[nH]c(-c4n[nH]c5ccc(-c6cncnc6)nc45)nc23)cc1 [Compound 55, 3-(4-(4-Fluorophenyl)-1H-benzo[d]imidazol-2-yl)-5-(pyrimidin-5-yl)-1H-pyrazolo[4,3-b]pyridine]	38.8	6.5
1.24	> 10	NC1CN(c2cncc(-c3ccc4[nH]nc(-c5nc6c(-c7ccc(Cl)s7)cccc6[nH]5)c4n3)n2)C1 [Compound 1068, 1-(6-(3-(4-(5-Chlorothiophen-2-yl)-1H-benzo[d]imidazol-2-yl)-1H-pyrazolo [4,3-b]pyridin-5-yl)pyrazin-2-yl)azetidin-3-amine]	42.7	
3.81	> 10	Cc1ccc(-c2cccc3[nH]c(-c4n[nH]c5ccc(-c6cncc(OC7CCCCC7)c6)nc45)nc23)s1 [Compound 735, 5-(5-(Cyclohexyloxy)pyridin-3-yl)-3-(4-(5-methylthiophen-2-yl)-1H-benzo [d]imidazol-2-yl)-1H-pyrazolo[4,3-b]pyridine]	38.8	
> 10	> 10	Fc1cccc(-c2cccc3[nH]c(-c4n[nH]c5ccc(-c6cnccn6)nc45)nc23)c1 [Compound 520, 3-(4-(3-Fluorophenyl)-1H-benzo[d]imidazol-2-yl)-5-(pyrazin-2-yl)-1H-pyrazolo[4,3-b]pyridine]	43.3	26
3.99	> 10	CN(C)CC(=O)Nc1cncc(-c2ccc3[nH]nc(-c4nc5c(-c6cccc(F)c6)cccc5[nH]4)c3n2)c1 [Compound 969, 2-(Dimethylamino)-N-(5-(3-(4-(3-fluorophenyl)-1H-benzo[d]imidazol-2-yl)-1H-pyrazolo[4,3-b]pyridin-5-yl)pyridin-3-yl)acetamide]	39	
> 10	> 10	O=C(Cc1ccccc1)Nc1cncc(-c2ccc3[nH]nc(-c4nc5c(-c6ccncc6)cccc5[nH]4)c3n2)c1 [Compound 122, 2-Phenyl-N-(5-(3-(4-(pyridin-4-yl)-1H-benzo[d]imidazol-2-yl)-1H-pyrazolo [4,3-b]pyridin-5-yl)pyridin-3-yl)acetamide]	40.3	44.4
> 10	> 10	CCCC(=O)Nc1cncc(-c2ccc3[nH]nc(-c4nc5c(-c6ccncc6)cccc5[nH]4)c3n2)c1 [Compound 129, N-(5-(3-(4-(Pyridin-4-yl)-1H-benzo[d]imidazol-2-yl)-1H-pyrazolo[4,3-b]pyridin-5-yl)pyridin-3-yl)butyramide]	34.9	0
0.539	3.15	Cn1cc(-c2ccc3[nH]nc(-c4nc5c(-c6cc(F)cc(CNS(C)(=O)=O)c6)cccc5[nH]4)c3n2)cn1 [Compound 764, N-(3-Fluoro-5-(2-(5-(1-methyl-1H-pyrazol-4-yl)-1H-pyrazolo[4,3-b]pyridin-3-yl)-1H-benzo[d]imidazol-4-yl)benzyl)methanesulfonamide]		
> 10	> 10	O=C(Nc1cncc(-c2ccc3[nH]nc(-c4nc5c(-c6ccncc6)cccc5[nH]4)c3n2)c1)C1CCCCC1 [Compound 135, N-(5-(3-(4-(pyridin-4-yl)-1H-benzo[d]imidazol-2-yl)-1H-pyrazolo[4,3-b]pyridin-5-yl)pyridin-3-yl)cyclohexanecarboxamide]	32.4	5.4
> 10	> 10	Cn1cc(-c2ccc3[nH]nc(-c4nc5c(-c6cccs6)cccc5[nH]4)c3n2)cn1 [Compound 700, 5-(1-Methyl-1H-pyrazol-4-yl)-3-(4-(thiophen-2-yl)-1H-benzo[d]imidazol-2-yl)-1H-pyrazolo[4,3-b]pyridine]	27.4	37.8

SMILES	EC50 [1] [µM]	EC50 (IL-6 (THP-1 cells)) [µM]	inhibition at 10 µM (IL-6 (THP-1 cells)) [%]	inhibition at 10 µM [1] [%]
Fc1cccc(-c2cccc3[nH]c(-c4n[nH]c5ccc(C6=CCNCC6)nc45)nc23)c1 [Compound 506, 3-(4-(3-Fluorophenyl)-1H-benzo[d]imidazol-2-yl)-5-(1,2,3,6-tetrahydropyridin-4-yl)-1H-pyrazolo[4,3-b]pyridine]	> 10	> 10	25.9	10
C1=C(c2ccc3[nH]nc(-c4nc5c(-c6ccc7c(c6)OCO7)cccc5[nH]4)c3n2)CCNC1 [Compound 1109, 3-(4-(Benzo[d][1,3]dioxol-5-yl)-1H-benzo[d]imidazol-2-yl)-5-(1,2,3,6-tetrahydropyridin-4-yl)-1H-pyrazolo[4,3-b]pyridine]	1.08	5.87		
